Experimental data as given in patent US9630958B2, “Triazine compounds” (Sphaera Pharma Pte. Ltd., priority 2012, dated 2017).

Key:
Recombinant mTOR (FRAP1) = target: T1, Recombinant mTOR (FRAP1) (Homo sapiens, UniProt P42345); assay: mTOR in vitro kinase assay (TR-FRET, phosphorylation of GFP-4E-BP1); type: biochemical; details: for inhibition at 1 µM: 1 uM compound, read-out: mTOR % Inhib@1 uM; for IC50: 8 μM ATP, 400 nM GFP-4E-BP1
T1 construct: purchased Invitrogen
How it was run: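 Recombinant human mTOR with GFP-4E-BP1 substrate at 400 nM and 8 μM ATP, 1 h at room temperature, then quenched with 10 mM EDTA plus 2 nM Tb-anti-p4E-BP1 (pThr46) for 1 h. TR-FRET 520/486 nm ratio fitted against inhibitor concentration by four-parameter sigmoidal regression.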

[1] = target: T2, PI3 Kinase alpha (p110 alpha/p85 alpha) (Homo sapiens, UniProt P42336); assay: PI3K TR-FRET assay (Transcreener ADP2); type: biochemical; details: for IC50: PI3K alpha, 1 μM ATP, 50 μM PIP2
T2 construct: purchased Invitrogen
T2 sequence (P42336 whole entry): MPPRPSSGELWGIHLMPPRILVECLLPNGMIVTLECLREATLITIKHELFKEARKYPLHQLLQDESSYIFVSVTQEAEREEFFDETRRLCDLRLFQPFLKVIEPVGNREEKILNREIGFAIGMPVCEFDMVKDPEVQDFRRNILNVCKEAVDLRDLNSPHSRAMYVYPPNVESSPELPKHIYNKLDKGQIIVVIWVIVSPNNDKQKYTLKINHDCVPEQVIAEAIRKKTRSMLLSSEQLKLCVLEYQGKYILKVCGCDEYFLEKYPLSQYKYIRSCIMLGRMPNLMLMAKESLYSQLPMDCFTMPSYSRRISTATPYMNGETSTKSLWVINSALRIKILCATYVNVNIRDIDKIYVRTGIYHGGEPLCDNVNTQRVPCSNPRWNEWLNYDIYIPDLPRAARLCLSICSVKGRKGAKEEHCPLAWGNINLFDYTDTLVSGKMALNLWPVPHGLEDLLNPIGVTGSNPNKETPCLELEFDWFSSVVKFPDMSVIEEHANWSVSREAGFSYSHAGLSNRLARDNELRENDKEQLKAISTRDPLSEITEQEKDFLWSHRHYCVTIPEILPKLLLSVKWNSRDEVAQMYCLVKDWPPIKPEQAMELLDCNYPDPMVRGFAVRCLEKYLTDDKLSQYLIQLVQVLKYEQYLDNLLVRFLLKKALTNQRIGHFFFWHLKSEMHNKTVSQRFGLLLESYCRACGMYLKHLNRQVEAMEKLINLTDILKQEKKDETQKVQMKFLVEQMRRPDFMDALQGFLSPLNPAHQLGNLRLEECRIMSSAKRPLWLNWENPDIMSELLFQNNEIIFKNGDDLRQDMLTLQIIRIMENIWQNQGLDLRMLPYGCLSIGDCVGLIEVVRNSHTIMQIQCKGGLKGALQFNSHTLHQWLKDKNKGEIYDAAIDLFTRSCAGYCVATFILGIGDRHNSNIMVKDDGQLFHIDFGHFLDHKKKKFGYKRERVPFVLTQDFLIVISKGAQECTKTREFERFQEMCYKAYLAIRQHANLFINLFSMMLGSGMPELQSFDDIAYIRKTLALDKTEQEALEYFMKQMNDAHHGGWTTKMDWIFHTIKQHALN
T2 sequence (P27986 whole entry partner): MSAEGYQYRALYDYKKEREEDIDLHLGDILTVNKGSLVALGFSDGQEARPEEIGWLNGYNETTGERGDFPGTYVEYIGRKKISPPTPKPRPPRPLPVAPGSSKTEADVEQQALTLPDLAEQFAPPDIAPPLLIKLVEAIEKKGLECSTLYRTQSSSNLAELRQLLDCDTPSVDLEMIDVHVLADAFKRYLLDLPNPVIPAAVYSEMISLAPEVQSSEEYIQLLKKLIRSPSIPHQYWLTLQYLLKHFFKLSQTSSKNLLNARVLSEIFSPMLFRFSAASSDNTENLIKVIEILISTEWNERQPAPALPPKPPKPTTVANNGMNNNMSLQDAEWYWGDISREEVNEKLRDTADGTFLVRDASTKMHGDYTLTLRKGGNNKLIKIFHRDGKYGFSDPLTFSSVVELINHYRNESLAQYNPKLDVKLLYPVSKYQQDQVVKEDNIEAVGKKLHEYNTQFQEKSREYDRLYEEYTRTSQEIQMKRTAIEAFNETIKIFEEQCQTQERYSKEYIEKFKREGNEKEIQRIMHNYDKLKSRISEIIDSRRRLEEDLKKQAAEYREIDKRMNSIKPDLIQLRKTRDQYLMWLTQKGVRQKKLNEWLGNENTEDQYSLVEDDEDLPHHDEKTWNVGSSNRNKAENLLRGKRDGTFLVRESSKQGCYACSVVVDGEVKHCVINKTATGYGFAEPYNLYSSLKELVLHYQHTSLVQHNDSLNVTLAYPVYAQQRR
How it was run: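 p110α/p85α with diC8 PIP2 (50 μM) and 1 μM ATP in 50 mM HEPES pH 7.4, MgCl2, CHAPS, DTT, EGTA; 1 h at room temperature. ADP detected by Transcreener ADP2 TR-FRET (665/615 nm ratio), converted to product via ADP-ATP standard curve; IC50 from four-parameter fit of % inhibition.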

T1 sequence (P42345 1360-2549 limits assumed): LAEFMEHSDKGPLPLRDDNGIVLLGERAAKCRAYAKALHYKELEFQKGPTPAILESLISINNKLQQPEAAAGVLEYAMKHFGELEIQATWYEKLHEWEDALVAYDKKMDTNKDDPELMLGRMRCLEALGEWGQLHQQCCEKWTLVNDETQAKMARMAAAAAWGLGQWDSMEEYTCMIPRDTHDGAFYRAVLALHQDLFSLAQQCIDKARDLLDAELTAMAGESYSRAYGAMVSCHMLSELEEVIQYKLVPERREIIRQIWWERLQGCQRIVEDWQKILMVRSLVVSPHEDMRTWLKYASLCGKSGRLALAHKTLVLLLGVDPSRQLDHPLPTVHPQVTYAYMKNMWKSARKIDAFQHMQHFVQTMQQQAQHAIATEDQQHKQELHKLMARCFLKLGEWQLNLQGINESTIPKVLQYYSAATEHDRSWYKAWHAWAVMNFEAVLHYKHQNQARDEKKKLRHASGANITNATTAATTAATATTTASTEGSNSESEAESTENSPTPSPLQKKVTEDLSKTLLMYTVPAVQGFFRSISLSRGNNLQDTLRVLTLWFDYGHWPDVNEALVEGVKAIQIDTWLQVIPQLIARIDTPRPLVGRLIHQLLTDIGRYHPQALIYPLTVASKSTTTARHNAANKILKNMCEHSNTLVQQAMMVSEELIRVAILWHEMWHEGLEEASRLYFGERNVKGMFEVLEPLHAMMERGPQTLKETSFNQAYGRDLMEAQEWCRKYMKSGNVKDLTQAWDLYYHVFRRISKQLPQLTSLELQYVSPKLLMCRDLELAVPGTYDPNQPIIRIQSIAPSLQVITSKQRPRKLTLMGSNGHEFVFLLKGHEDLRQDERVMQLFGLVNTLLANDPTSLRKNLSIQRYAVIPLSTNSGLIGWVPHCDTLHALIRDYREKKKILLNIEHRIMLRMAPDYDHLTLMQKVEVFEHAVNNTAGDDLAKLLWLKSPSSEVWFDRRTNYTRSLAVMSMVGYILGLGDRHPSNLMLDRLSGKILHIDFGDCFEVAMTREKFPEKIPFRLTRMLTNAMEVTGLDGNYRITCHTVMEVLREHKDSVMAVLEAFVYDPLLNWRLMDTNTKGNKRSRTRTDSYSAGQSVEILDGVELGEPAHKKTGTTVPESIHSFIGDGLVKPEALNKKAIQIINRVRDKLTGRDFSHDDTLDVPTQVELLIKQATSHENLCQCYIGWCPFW

Row | SMILES | inhibition at 1 µM (Recombinant mTOR (FRAP1)) [%] | IC50 [1] [nM] | IC50 (Recombinant mTOR (FRAP1)) [nM] | inhibition at 1 µM ([1]; 1 uM compound, read-out: PI3K % Inhib@1 uM) [%]
1 | CS(=O)(=O)N1CCC(COc2nc(-c3cnc(N)s3)nc(N3CCOCC3)n2)C1 (centres unmarked) [Compound 10197, 5-(4-((1-(methylsulfonyl)pyrrolidin-3-yl)methoxy)-6-morpholino-1,3,5-triazin-2-yl)thiazol-2-amine] | < 50 | < 1000 |  | 
2 | Cc1nc(N)sc1-c1nc(Oc2ccc(C(=O)N(C)C)cc2)nc(N2CCOCC2)n1 [Compound 10199, 4-((4-(2-amino-4-methylthiazol-5-yl)-6-morpholino-1,3,5-triazin-2-yl)oxy)-N,N-dimethylbenzamide] | < 50 | < 1000 |  | 
3 | CN(C)C(=O)c1cccc(Nc2nc(-c3cnc(N)s3)nc(N3CCOCC3)n2)c1 [Compound 10200, 3-((4-(2-aminothiazol-5-yl)-6-morpholino-1,3,5-triazin-2-yl)amino)-N,N-dimethylbenzamide] | < 50 | < 1000 |  | 
4 | NC(=O)c1ccc(Oc2nc(-c3cnc(N)s3)nc(N3CCOCC3)n2)cc1 [Compound 10201, 4-((4-(2-aminothiazol-5-yl)-6-morpholino-1,3,5-triazin-2-yl)oxy)benzamide] | < 50 | < 1000 |  | 
5 | C[C@H]1COCCN1c1nc(O[C@H]2CC[C@H](C(=O)N(C)C)CC2)nc(-c2ccc3[nH]ncc3c2)n1 [Compound 10202, (1S,4r)-4-((4-(1H-indazol-5-yl)-6-((S)-3-methylmorpholino)-1,3,5-triazin-2-yl)oxy)-N,N-dimethylcyclohexane-1-carboxamide] |  | > 10000 | > 1000 | 
6 | C[C@H]1COCCN1c1nc(O[C@H]2CC[C@H](C(=O)N(C)C)CC2)nc(-c2ccc(CO)cc2)n1 [Compound 10203, (1S,4r)-4-((4-(4-(hydroxymethyl)phenyl)-6-((S)-3-methylmorpholino)-1,3,5-triazin-2-yl)oxy)-N,N-dimethylcyclohexane-1-carboxamide] |  |  | > 3000 | < 50
7 | C[C@H]1COCCN1c1nc(Oc2ccc(C(=O)N(C)C)cc2F)nc(-c2cnc(N)nc2)n1 [Compound 10204, (S)-4-((4-(2-aminopyrimidin-5-yl)-6-(3-methylmorpholino)-1,3,5-triazin-2-yl)oxy)-3-fluoro-N,N-dimethylbenzamide] |  | < 1000 | < 1000 | 
